# Measurements published in US11161881B2, “Composition comprising a peptide and an inhibitor of viral neuraminidase” (priority 2010, dated 2021).
# How the values were obtained:
# [1] = system: influenza strain A (PR8/34); test: Relative lung weight as a measure of pulmonary inflammation in mice infected with influenza A; format: in vivo, mice (strain C57BL/6); conditions: repeated on days 2 and 4
# Method: Infection with influenza virus causes the development of a pulmonary inflammation. Laboratory mice (strain C57BL/6, 8 weeks old) were infected per-nasal with the influenza strain A (PR8/34) at a dose of 150 PFU. On days 3, 5, 7 and 9 following the infection, the lungs were taken out of 8 mice, respectively, and the relative lung weight was determined as a measure of the pulmonary inflammation.
# Treatment of the pulmonary inflammation by administering the neuraminidase inhibitor or administering a combination of neuraminidase inhibitor and peptide AP301. Laboratory mice (strain C57BL/6, 8 weeks old) were infected per-nasal with the influenza strain A (PR8/34) at a dose of 150 PFU. Subsequently, each test animal received an oral administration of 10 mg/kg Oseltamivir (neuraminidase inhibitor) and an intratracheal administration of 10 μg/test animal of peptide AP301. The treatment was repeated on test days 2 and 4. On days 5, 7 and 9 following the infection, the lungs were taken out of 30 mice, respectively, and the relative lung weight was determined as a measure of the pulmonary inflammation. The results are shown graphically in FIG. 2. […]
# On days 7 and 9 following the infection, the lungs were taken out of 20 mice, respectively, and the relative lung weight was determined as a measure of the pulmonary inflammation. […]
# [2] = system: interleukin-6 (IL-6) release from fresh human whole blood; test: Ex vivo release of interleukin-6 from fresh human whole blood (ELISA); format: cell-based; conditions: for concentration of IL-6: human whole blood cultures, 24 hours, n = 5
# Text: Ex vivo assessment of proinflammatory properties of the AP301 peptide in human whole blood. […] In this study, fresh human whole blood has been used, as it represents an approved predictive model system for the assessment of inflammatory response in vivo.
# Summary of methodology. It was the goal of this study to determine the proinflammatory signalling capacity of the peptide AP301. Whole blood cultures were used and the secretion of interleukin-6 (IL-6), a very sensitive marker for proinflammatory stimulation, was quantified by ELISA.
# Test system 25 ml of freshly taken heparinized blood from • 5 healthy volunteers (HV) was used in the tests. […]
# Whole blood cultures. Whole blood (WB) cultures are performed by pipetting 1 ml WB into wells of 24-well-plates. In each experiment, unstimulated and control-stimulated cultures were included.
# If possible, the substances and stimulants to be investigated were always added in an identical volume to each well of a given experiment, which is not greater than 10% of the total volume contained in a well. Unstimulated controls received PBS. Volume adjustments and dilutions for different treatments were also done with PBS.
# The content of each well was mixed and the plates incubated at 37° C. and 5% CO2 for 24 hours. After incubation the content of each well was transferred to a fresh 1.5 ml microtube and centrifuged at 8,000-9,000×g for 15 minutes. The supernatant of each sample was transferred individually to two 1.5 ml microtubes and kept at −20° C. until use.
# Detection of interleukin-6. Interleukin-6 was quantified by a specific ELISA (Human IL-6 ELISA Set, BD Biosciences, Cat. No. 555220) employing an anti-human IL-6 antibody as capture antibody, a biotinylated anti-human IL-6 detection antibody, avidin-horseradish peroxidase conjugate as enzyme reagent and recombinant IL-6 as standard. Absorbance measurement was performed at 450 nm using the Packard FusionReader.
# Data analysis. The results for each plate were stored and evaluated using the FusionDataAnalysis Software. […]
smiles,measurement,setting,value
CCOC(=O)C1=C[C@@H](OC(CC)CC)[C@H](NC(C)=O)[C@@H](N)C1 [Oseltamivir],"reduction of pulmonary inflammation, as measured by the lung weight","[1]; Example 2: 150 PFU per-nasal, Oseltamivir 10 mg/kg oral, AP301 10 μg/test animal intratracheal, lungs on days 5, 7 and 9",just a moderate effect on reducing the pulmonary inflammation
"C[C@@H]1NC(=O)CNC(=O)[C@H](CCC(=O)O)NC(=O)[C@@H]2CCCN2C(=O)[C@H]([C@@H](C)O)NC(=O)[C@H](CCC(=O)O)NC(=O)[C@H](CCCNC(=N)N)NC(=O)[C@H](CCC(N)=O)NC(=O)CNC(=O)[C@@H](N)CSSC[C@@H](C(=O)O)NC(=O)[C@H](Cc2ccc(O)cc2)NC(=O)[C@H](Cc2c[nH]c3ccccc23)NC(=O)[C@@H]2CCCN2C(=O)[C@H](CCCCN)NC(=O)[C@H](C)NC(=O)[C@H](CCC(=O)O)NC1=O [AP301, (NH2) Cys-Gly-Gln-Arg-Glu-Thr-Pro-Glu-Gly-Ala-Glu-Ala-Lys-Pro-Trp-Tyr-Cys (COOH)]",induction of IL-6 secretion (in words),"[2]; all concentrations tested (10 μg/ml to 1 ng/ml for peptide; high and low doses of LPS), five healthy donors",did not induce any detectable level of IL-6 secretion
same,TNF receptor binding activity / proinflammatory response (concluded from IL-6 release),[2]; ex vivo human whole blood model,does not exhibit any TNF receptor binding activity
same,concentration of IL-6,[2]; test item concentration 1 ng/ml,less than 0.5 pg/ml
same,concentration of IL-6,[2]; test item concentration 3 ng/ml,less than 0.5 pg/ml
same,concentration of IL-6,[2]; test item concentration 1 mg/ml,less than 0.5 pg/ml
same,concentration of IL-6,[2]; test item concentration 10 mg/ml,less than 0.5 pg/ml
CC(=O)N[C@H]1[C@H]([C@H](O)[C@H](O)CO)OC(C(=O)O)=C[C@@H]1N=C(N)N [Zanamivir],"reduction of pulmonary inflammation, as measured by the lung weight","[1]; Example 4: 150 PFU per-nasal, Zanamivir 1.5 mg/kg nasal, AP301 50 μg/test animal intratracheal, lungs on days 7 and 9",just a moderate effect on reducing the pulmonary inflammation
